We go through three compounds from EP0155934B1, “Pharmaceutical compositions for treating androgen-related disorders in humans” (Duke University, priority 1983, dated 1985).

The subject of test [1] is 5α-Reductase. The test is described as follows: Preincubation of enzyme with inhibitor and NADPH, tenfold dilution, then assay for 5a-reductase activity. Type of test: biochemical. The following applies: for manner of combination with / inactivation of the enzyme: in the presence of the co-factor NADPH; for Picomol Testosterone reduced/mg protein in 45 min + SEM: testosterone 5x10^-8, NADPH 5x10^-4. From the text: (§1) The compounds of the present invention represent an important advance over progestrone and derivatives thereof since they are irreversible inhibitors of the enzyme 5a-reductase. Employing the assay of R. J. Moore and J. D. Wilson [Methods in Enzymology, Vol. XXXVI, Academic Press, N.Y., Ed. W. O'Malley and G. Hardman, p.

Test [2] has as its system cell-culture preparations of human prostate. The following applies: thereby inhibiting growth of the tissue; cited from earlier work.
For test [3] the following is noted: topical administration of a 0.5% solution in aqueous ethanol; cited from earlier work.
The subject of test [4] is 5a-reductase. The test is described as follows: Time course of inactivation of 5a-reductase after incubation with NADPH and inhibitor (saturation kinetics). The following applies: Fig. 1. Type of test: biochemical. As for the experimental part:
The time course of inactivation of 5a-reductase following incubation of the enzyme with NADPH and 17a-acetoxy-6-methyleneprogesterone is shown in Fig. 1.
When these rate constants are plotted (as the t 1/2's) against the reciprocal of the inhibitor concentrations, a straight line i obtained with a positive intercept on the y-axis, indicating a saturation phenomenon (Fig. 2). […] The rate constant for this step (kcat) is 4.8 x 10-^3 s-'.

In test [5] the test system is enzyme 5a-reductase. The test is described as follows: 5a-reductase inhibition, assay of R. J. Moore and J. D. Wilson. It is filed as biochemical. The settings on record: compared with progesterone.
Excerpt: as §1

Turning to `CC(=O)[C@H]1CC[C@H]2[C@@H]3CCC4=CC(=O)CC[C@]4(C)[C@H]3CC[C@]12C` [Progesterone, reference compound], the “manner of combination with / inactivation of the enzyme” value in test [1] is “competitive and reversible”. Further, in test [1] (similar preincubation of the enzyme (with NADPH)), the “enzyme inactivation on preincubation” value was “does not result in enzyme inactivation”. The “inhibition of the enzyme” value in test [2] is “strongly inhibits”. In addition, in test [3], the “males with acne with an important decrease in sebum secretion” value is 45/53.
Take `C=C1C[C@@H]2[C@H](CC[C@@]3(C)[C@H]2CC[C@]3(OC(C)=O)C(C)=O)[C@@]2(C)CCC(=O)C=C12` [17a-acetoxy-6-methyleneprogesterone, 17-Acetoxy-6-methylene-4-pregnen-3,20-dione]: the “Picomol Testosterone reduced/mg protein in 45 min + SEM” value is 0.71±0.018n = 6 Picomol Testosterone reduced/mg protein in 45 min in test [1] (A: preincubation 15 min with inhibitor 5x10^-7 M and NADPH 6x10^-5, assay: inhibitor 5x10^-8 M, n = 6); 3.0 ±0.26n = 6 Picomol Testosterone reduced/mg protein in 45 min in test [1] (B: preincubation 15 min without inhibitor, NADPH 6x10^-5, assay: inhibitor 5x10^-8 M, n = 6); 2.83±0.09n = 6 Picomol Testosterone reduced/mg protein in 45 min in test [1] (C: preincubation 15 min without inhibitor and without NADPH, assay: inhibitor 5x10^-8 M, n = 6); 2.63±0.18n = 6 Picomol Testosterone reduced/mg protein in 45 min in test [1] (D: preincubation 15 min with inhibitor 5x10^-7 M, no NADPH, assay: inhibitor 5x1-^-8 M, n = 6); 3.14±0.20n = 4 Picomol Testosterone reduced/mg protein in 45 min in test [1] (F: no preincubation, assay: inhibitor 5x10^-8 M, n = 4). In test [1], the “manner of combination with / inactivation of the enzyme” value is “irreversible”. For the same compound, the enzyme activity lost in test [1] (preincubation with inhibitor and NADPH, diluting tenfold, assaying for 5a-reductase activity) was 75%. For the same compound, in test [4], the “time course of inactivation of the enzyme” value is “pseudo first-order kinetics”. Besides, the “potency as inhibitors of the enzyme” value in test [5] is “equipotent with progesterone”.
Regarding `C=C1C[C@H]2[C@@H]3CC[C@H](C(C)=O)[C@@]3(C)CC[C@@H]2[C@@]2(C)CCC(=O)C=C12` [6-methyleneprogesterone], in test [5], the “potency as inhibitors of the enzyme” value is listed as “equipotent with progesterone”.
